Source: PMC10295897, “A Novel MDM2-Binding Chalcone Induces Apoptosis of Oral Squamous Cell Carcinoma” (Biomedicines, 2023)

Assays:
C57BL/6 female mice = test: In vivo acute toxicity study; settings: for Gross Necropsy: day 14
Protocol: The acute toxicity study for compound 1f was performed as in the work of Macedo et al., 2019 [24]. The assay was approved by the University Animal Ethics Board under registration number 2699110419, in accordance with Brazilian guidelines and regulations. Dosing and analysis were performed according to OECD guidelines 423 and revised by Parasuraman. The test was performed in 12-week-old C57BL/6 female mice via intraperitoneal injection. Each animal group had n = 3 and received only one intraperitoneal injection (Day 0) of compound 1f dissolved in […] PBS and 3% DMSO. The control group animals received only 3% DMSO in PBS. The first dose of the compound was 25 mg/kg; subsequent dose levels (50 mg/kg and 100 mg/kg) were determined based on the result obtained from the previous dosing. The animals were examined every day, twice a day, for mortality and morbidity for 14 days. At day 14, all animals were anesthetized (ketamine 100 mg/kg and xylazine 10 mg/kg) followed by cervical dislocation. The gross necropsy and histology of the main organs were performed. Body weight and average food consumption were measured every 7 days as an indication of morbidity, and the following signs were assessed: tremors; convulsion; salivation; diarrhea; lethargy; pain signs; increased rear arching; and defect in mobility. The necropsy included an examination of the external characteristics of the carcass; external body orifices; the abdominal, thoracic, and cranial cavities; and organs/tissues—liver, thymus, right kidney, right testicle, heart, and lung.

SCC4 cells = test: MTT cell viability assay, SCC4 cells; format: cell-based, human
Protocol: (§1) Human SCC-4, SCC-9, and SCC-25 cells derived from a human oral tongue SCC (squamous cell carcinoma) were obtained from the ATCC (CRL-1624, CRL-1629, and CRL-1628, respectively) and maintained in 1:1 DMEM/F12 (Dulbecco’s modified Eagle medium and Ham’s F12 medium; Gibco (Thermo Fisher, Waltham, MA, USA)) supplemented with 10% (v/v) FBS (fetal bovine serum; Invitrogen, Thermo Fisher, Waltham, MA, USA) and 400 ng/mL hydrocortisone (Sigma-Aldrich Co., St. Louis, MO, USA). Primary normal human gingival fibroblasts were obtained from the ATCC (PCS-201-018; HGF) and maintained in DMEM supplemented with 10% (v/v) FBS and were used in a maximum of six passages. The cells were grown in a humidified environment containing 5% CO2 at 37 °C. For all biological experiments, the compounds and control nutlin 3a were solubilized in 100% DMSO (all Sigma-Aldrich) to a final concentration of 10 mM. Carboplatin stock was prepared in water (Fauldcarbo®; LibbsFarmacêutica, São Paulo, SP, Brazil) and was used as a standard anticancer compound.
(§2) The viability of SCC cell lines, HT-29, HCT-116, HEP2G and primary human fibroblast cells was evaluated using the MTT assay as in [26]. Briefly, the cells were grown in duplicates in 96-well plates (5 × 10^3 cells/well) until confluence. Then, the medium was removed, fresh medium was added, and the cells were returned to the incubator in the presence of different compounds. DMSO at the same concentrations was used as a 100% cell viability control. After 48 h, the cells were incubated with 5 mg/mL MTT reagent (3-(4,5-dimethyl-2-thiazolyl)-2,5-diphenyl-2-H-tetrazolium bromide) (Sigma-Aldrich Co., St. Louis, MO, USA) for 3.5 h. After that, formazan crystals were dissolved in MTT solvent solution (DMSO/methanol 1:1 v/v), and the absorbance at 560 nm was evaluated using an EPOCH microplate spectrophotometer (BioTek Instruments, Winooski, VT, USA) with the background absorbance at 670 nm subtracted. Each of the six compounds was tested at six or seven different concentrations, ranging from 0.3 µM to 200 µM in cancer cell lines (SCC-4, SCC-9 and SCC-25) and 0.3 µM to 200 µM in primary normal human gingival fibroblasts. Controls (carboplatin, nutlin 3a) were tested at six or seven different concentrations ranging from 0.05 µM to 1000 µM in cancer cells and normal cells, depending on the compound.
(§3) The data are presented as means ± SD. IC values for the MTT assays were obtained by nonlinear regression using the […] 5.0 program (Intuitive Software for Science, San Diego, CA, USA) from at least three independent experiments. A dose–response (inhibitor) vs. response curve using the least squares method was used to determine the IC50, SD, and R^2 of the data. The selectivity index was calculated as SI = IC50 of the compound in normal oral fibroblast cells/IC50 of the same compound for each cancer cell line (SCC-4, SCC-9, SCC-25, HCT-116, HT29 and HEP2G), and the mean was calculated when indicated.

[1] = system: Primary Gingival Fibroblast (HGF); test: MTT cell viability assay, primary normal gingival fibroblasts; format: cell-based, human; settings: Homo sapiens, Fibroblast, 48 h
Protocol: as §1, §2, §3

SCC9 cells = test: Annexin V-FITC/PI apoptosis flow cytometry; format: cell-based, human; settings: SCC9, 2 × IC50, 48 h
Protocol: (§4) Cells of the SCC9 cell line were plated in 6-well plates (5 × 10^5 cells/well), trypsinized 48 h after treatment, labeled using the Annexin V-FITC Apoptosis Detection Kit according to the manufacturer’s protocol (#BMS500FI/300, Invitrogen), and analyzed by FACScalibur flow cytometry as in [35]. Furthermore, 5 × 10^4 SCC-9 cells were plated in a 24-well plate containing 1 mL of DMEM/F12 with 10% FBS per well. CellEvent™ Caspase-3/7 Reagent (#R37111, Invitrogen) was diluted in a culture medium according to the manufacturer’s instructions. […] The cells were analyzed by flow cytometry after 48 h of treatment.

SCC-9 cells = test: Caspase-3/7 flow cytometry; format: cell-based, human; settings: SCC9, 2 × IC50, 48 h
Protocol: as §4

Cc1cccc(C)c1-n1cc(/C=C/C(=O)c2ccccc2N)nn1 [1f, (E)-1-(2-Aminophenyl)-3-(1-(2,6-dimethylphenyl)-1H-1,2,3-triazol-4-yl)prop-2-en-1-one]
Change in body weight (C57BL/6 female mice; 25 mg/kg single i.p., 14 days): Absent | Morbidity (C57BL/6 female mice; 25 mg/kg single i.p., 14 days): Absent | Gross Necropsy (C57BL/6 female mice; 25 mg/kg single i.p.): No alteration | Change in body weight (C57BL/6 female mice; 50 mg/kg single i.p., 14 days): Absent | Morbidity (C57BL/6 female mice; 50 mg/kg single i.p., 14 days): Absent | Gross Necropsy (C57BL/6 female mice; 50 mg/kg single i.p.): No alteration | Change in body weight (C57BL/6 female mice; 100 mg/kg single i.p., 14 days): Absent | Morbidity (C57BL/6 female mice; 100 mg/kg single i.p., 14 days): Absent | Gross Necropsy (C57BL/6 female mice; 100 mg/kg single i.p.): No alteration | animal weight compared to control group (C57BL/6 female mice; 25, 50, 100 mg/kg i.p., 14 days): no significant change in animal weight | food consumption, second week (C57BL/6 female mice; all groups (25, 50, 100 mg/kg i.p.)): no noticeable difference in food consumption | food intake, first week (C57BL/6 female mice; all treated groups (25, 50, 100 mg/kg i.p.), more significant at 100 mg/kg): reduction in food intake | IC50 (SCC4 cells; Homo sapiens, SCC-4, 48 h, MTT): 4.73 µM | SCC4 S.I. (SCC4 cells; selective index = IC50 HGF / IC50 SCC4): 6.25 | IC50 [1]: 29.6 µM | phosphatidylserine exposure (SCC9 cells): 43.0% | caspase 3/7 activity (SCC-9 cells): 47.5%
